Experimental data reported in patent US20020115642A1, “Beta-lactam antibiotics” (priority 2000, published 2002).
In brackets after ≈: the same amount, converted by molar mass. Where two headings read alike, the source gives them in different places.

Columns and labels:
[1] = test system: E. aerogenes; assay: Susceptibility testing (MIC, modified NCCLS method); format: cell-based, Enterobacter aerogenes; details: E. aerogenes (5)
How it was run: (§1)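 Growth inhibition was scored by optical density increase at 600 nm. Bacteria in broth were added at roughly 1-1.5×10^6 cells/ml to 20 twofold serial dilutions of compound, prepared from water or DMSO stocks. The NCCLS MIC procedure was modified for high throughput.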

[2] = test system: E. coli C(Tem3 1-27); assay: Inhibition of bacterial growth (IC50, OD600); format: cell-based; details: for IC50: Escherichia coli
Method: (§2) Compounds of the invention were tested for their ability to inhibit the growth of β-lactam sensitive and resistant bacteria by contacting samples of such cells with various dilutions of the compositions, incubating the cells at 37° C. in the presence of these compositions and then measuring the number of viable cells present in each sample.
(§3) Two compounds of the invention were tested, Compound (9) and Compound (1l). Incubation of bacterial cells was performed for two time periods, 10 hours and 20 hours. Four E. coli strains were used for the test. These strains were all derived from the strain NovaBlue (NovaGen Inc., Madison, Wis.). E. coli N is a normal, β-lactam sensitive strain. E coli R(Tem1) is a β-lactam resistant strain with a β-lactamase gene on a plasmid. E. coli C(Tem4O-15) is a β-lactam resistant strain with a β-lactam inhibitor resistant β-lactamase gene, and E. coli C(Tem3 1-27) is β-lactam resistant strain with an alternative β-lactam inhibitor resistant β-lactamase gene.
(§4) The various E. coli strains were each treated with dilutions of the compounds of the invention. […] The number of viable cells at each time point was determined by measuring the OD600 of each cell sample.
(§5) After measuring the number of viable cells present, the IC50 for each sample was determined. […] In addition, both compounds were effective at inhibiting the growth of both antibiotic sensitive and resistant bacterial cells.

[3] = test system: E. coli N; assay: Inhibition of bacterial growth (IC50, OD600); format: cell-based; details: Escherichia coli
Method: as §2, §3, §4, §5

[4] = test system: E. coli C(Tem4O-15); assay: Inhibition of bacterial growth (IC50, OD600); format: cell-based; details: for IC50: Escherichia coli
Method: as §2, §3, §4, §5

[5] = test system: E coli R(Tem1); assay: Inhibition of bacterial growth (IC50, OD600); format: cell-based; details: for IC50 ratio N/R: N versus R (Tem1); for IC50: Escherichia coli
Method: as §2, §3, §4, §5

[6] = test system: S. epidermidis; assay: Susceptibility testing (MIC, modified NCCLS method); format: cell-based, Staphylococcus epidermidis
Method: (§6) The NCCLS (National Committee for Clinical Laboratory Standards) method to determine MIC's of antimicrobial compounds was modified for high-throughput screening. All stocks of tested compounds were prepared in either water or in dimethylsulfoxide (DMSO), depending on the solubility. […] Briefly 20 2-fold serial dilutions of testing compounds from the highest concentration were made in a 384-well microtiter plate. Each well was inoculated with testing bacteria in broth to a final concentration of approximately 1-1.5×10^6 cells/ml. Bacterial growth was determined by the increase of optical density at 600 nm using a microplate reader (Tecan SpectraFluor Plus).

[7] = biological target: T1, TEM-1 β-lactamase (Escherichia coli, UniProt P62593); format: biochemical; details: 20 minutes, […] TEM-1, 4 μM solution of Compound (9)
T1 construct: His tag (N); made in house; host or cells: Escherichia coli BL21(DE3)
T1 sequence (P62593 24-286 limits assumed): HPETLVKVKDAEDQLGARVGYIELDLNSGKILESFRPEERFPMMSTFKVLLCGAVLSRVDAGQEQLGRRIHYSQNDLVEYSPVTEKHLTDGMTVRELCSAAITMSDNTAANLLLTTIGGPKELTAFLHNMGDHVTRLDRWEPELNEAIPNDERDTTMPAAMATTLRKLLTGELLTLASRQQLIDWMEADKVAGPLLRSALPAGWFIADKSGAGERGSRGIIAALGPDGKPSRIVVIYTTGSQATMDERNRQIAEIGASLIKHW
Method: Assays were conducted at 37° C. in 100 mM potassium phosphate buffer pH 7.2 with 1 mM EDTA and 0.5 μg/ml TEM-1 β-lactamase. […] Hydrolysis product (triclosan) was separated from Compound (9) by use of an HP1100 series HPLC equipped with an Alltech Adsorbosphere HS(C18)5u 150 mm×4.6 mm column. The mobile phase was isocratic containing 55% acetonitrile and 0.1% TFA producing retention times of 20.4 minutes and 24.1 minutes for triclosan and Compound (9), respectively. Quantitation of triclosan was based on the A260 integrated peak area as compared to triclosan standards.
A typical TEM-1 β-lactamase assay is conducted at 37° C. in 1.4 ml of 100 mM potassium phosphate pH 7.2, 1 mM; ethylenediamine tetraacetic acid (EDTA) and 25 nM TEM-1 β-lactamase. A test compound is assayed at several concentrations, for example at 5 and 20 μM. […] Substrates and products are separated and quantitated via HPLC (described below). […]
Kinetic parameters of test compounds (kcat and Km) are determined from a simultaneous progress curve analysis of substrate consumption and product formation (when both are observable) as fit to the equations: […]
Hydrolysis product (triclosan) was separated from Compound (9) by use of an HP1100 series HPLC equipped with an Alltech Adsorbosphere HS(C18)5μ150 mm×4.6 mm column. […] Quantitation of triclosan was based on the A260 integrated peak area as compared to triclosan standards.

[8] = test system: S. aureus clinical isolates; assay: MIC by agar dilution, recent clinical isolates (UCSD Medical Center); format: cell-based, Staphylococcus aureus; details: MSSA (14)
Method: Growth of all 14 isolates of MSSA was inhibited by Compound (9) at the lowest tested concentration (0.08 μg/ml) (See Table 6, below).

[9] = test system: M. catarrhalis; assay: Susceptibility testing (MIC, modified NCCLS method); format: cell-based, Moraxella catarrhalis; details: M. catarrhalis (4)
Method: as §6

[10] = test system: E. coli N; assay: as above; format: cell-based, Escherichia coli; details: Escherichia coli, E. coli, BLA neg.
How it was run: as §1

[11] = test system: E. coli/TEM-1; assay: as above; format: cell-based, Escherichia coli; details: for MIC: Escherichia coli
How it was run: as §1

[12] = test system: E. faecium; assay: as above; format: cell-based, Enterococcus faecium; details: Enterococcus faecium; E. faecium (6); read-out: GM* MIC (geometric mean)
Method: as §6

[13] = test system: E. faecalis; assay: as above; format: cell-based, Enterococcus faecalis; details: E. faecalis (7)
How it was run: as §1

[14] = test system: K. pneumoniae; assay: as above; format: cell-based, Klebsiella pneumoniae; details: K. pneumoniae (5)
How it was run: as §1

[15] = test system: S. aureus clinical isolates; assay: MIC by agar dilution, recent clinical isolates (UCSD Medical Center); format: cell-based, Staphylococcus aureus; details: MRSA (17)
[16] = test system: Staphylococcus aureus; assay: Susceptibility testing (MIC, modified NCCLS method); format: cell-based; details: for MIC: Staphylococcus aureus
How it was run: as §1

Which results are given for `O=C(Cc1cccs1)N[C@@H]1C(=O)N2C(C(=O)O)=C(COc3cc(Cl)ccc3Oc3ccc(Cl)cc3Cl)CS[C@H]12` [Compound 9, 3-(2-(2,4-Dichlorophenoxy)-5-chlorophenoxy)methyl-7-(2-thienylacetamido)-3-cephem-4-carboxylic acid]?
MIC range [1]: 500 to 8000 ng/mL; MIC ([1]; Klebsiella aerogenes, read-out: GM* MIC (geometric mean)): 3360 ng/mL (≈ 5370 nM); IC50 ratio (C/R or N/C) ([2]; 10 hours, line of C (Tem31-27)): C/R = 90x; IC50 ratio (given C/R or N/R) ([2]; 20 hours, line of C (Tem31-27)): C/R = 2x; IC50 ([2]; 10 h, read-out: IC50 10 hours): 2.09 nM; IC50 ([2]; 20 h, read-out: IC50 20 hours): 21 nM; IC50 ([3]; 10 h, read-out: IC50 10 hours, Cell N, 10 hours, 37° C.): 189 nM; IC50 ([3]; 20 h, read-out: IC50 20 hours, Cell N, 20 hours): 42.4 nM; IC50 ratio (C/R or N/C) ([4]; 10 hours, line of C (Tem40-15)): C/R = 117x; IC50 ratio (given C/R or N/R) ([4]; 20 hours, line of C (Tem40-15)): C/R = 2.3x; IC50 ([4]; 10 h, read-out: IC50 10 hours): 1.62 nM; IC50 ([4]; 20 h, read-out: IC50 20 hours): 18.3 nM; IC50 ratio N/R ([5]; 10 hours): N/R = 1969x; IC50 ratio N/R ([5]; 20 hours): N/R = 10x; IC50 ([5]; 10 h, read-out: IC50 10 hours, Cell R (Tem1), 10 hours): 0.096 nM; IC50 ([5]; 20 h, read-out: IC50 20 hours, Cell R (Tem1), 20 hours): 4.13 nM; MIC range ([6]; S. epidermidis (5)): 0.015 to 500 ng/mL; GM* MIC (geometric mean) ([6]; S. epidermidis (5), listed as Comp. (9)): <4 ng/mL; fold more active than vancomycin ([6]; S. epidermidis, geometric mean MIC): 435 fold; MIC ([6]; Staphylococcus epidermidis, S. epidermidis (5), read-out: GM* MIC (geometric mean)): 4 ng/mL (≈ 6.39 nM); converted to triclosan [7]: ~90%; MIC range [8]: ≤ 0.08 µg/mL; MIC range ([8]; listed as Comp. (9)): 0.08-0.08 μg/ml; MIC50 ([8]; Staphylococcus aureus): 80 ng/mL (≈ 128 nM); MIC90 ([8]; Staphylococcus aureus): 80 ng/mL (≈ 128 nM); MIC range [9]: 0.015 to 31 ng/mL; MIC ([9]; Moraxella catarrhalis, read-out: GM* MIC (geometric mean)): 0.18 ng/mL (≈ 0.288 nM); MIC ([10]; read-out: MIC, Comp. (9) plus 4 μg/mL CLA, plus 4 μg/mL lithium clavulanate): 250 ng/mL; MIC ([10]; drug alone, read-out: MIC): 250 ng/mL (≈ 399 nM); MIC ([10]; plus 8 μg/mL sulbactam, read-out: MIC, Comp. (9) plus 8 μg/mL SBT): 130 ng/mL; MIC [11]: 2 ng/mL (≈ 3.2 nM); MIC ([11]; read-out: MIC, Comp. (9) plus 8 μg/mL SBT): 16 ng/mL; fold more potent against E. coli/TEM-1 compared with E. coli N ([11]; MIC ratio, Table 4): 128 fold; MIC [12]: > 7000 ng/mL; MIC range [13]: 8000 to 16000 ng/mL; MIC ([13]; Enterococcus faecalis, read-out: GM* MIC (geometric mean)): 8000 ng/mL (≈ 12800 nM); MIC range [14]: 980 to 3910 ng/mL; MIC ([14]; Klebsiella pneumoniae, read-out: GM* MIC (geometric mean)): 1960 ng/mL (≈ 3130 nM); MIC range [15]: 80 to 600 ng/mL; MIC50 ([15]; Staphylococcus aureus): 80 ng/mL (≈ 128 nM); MIC90 ([15]; Staphylococcus aureus): 300 ng/mL (≈ 479 nM); fold greater potency than vancomycin ([16]; MRSA and vancomycin-resistant S. aureus): at least 85 fold; Geometric mean of MIC ([16]; S. aureus β-lactamase negative (2), listed as Comp. 9): 1410 ng/mL; MIC ([16]; ATCC11632, ATCC 11632, methicillin-sensitive, β-lactamase Neg./Pos., read-out: MIC): 0.015 ng/mL (≈ 0.024 nM); MIC ([16]; ATCC13301, ATCC 13301, methicillin-sensitive, β-lactamase Positive, read-out: MIC): 0.015 ng/mL (≈ 0.024 nM); MIC ([16]; ATCC14154, ATCC 14154, methicillin-sensitive, β-lactamase Positive, read-out: MIC): 0.015 ng/mL (≈ 0.024 nM); MIC ([16]; ATCC33591, ATCC 33591, methicillin-resistant, β-lactamase Positive, read-out: MIC): 0.03 ng/mL (≈ 0.0479 nM); MIC ([16]; ATCC33592, ATCC 33592, methicillin-sensitive, β-lactamase Positive, read-out: MIC): 0.015 ng/mL (≈ 0.024 nM); MIC ([16]; ATCC33593, ATCC 33593, methicillin-resistant, β-lactamase Positive, read-out: MIC): 0.015 ng/mL (≈ 0.024 nM); MIC ([16]; ATCC33594, ATCC 33594, methicillin-sensitive, β-lactamase Positive, read-out: MIC): 0.015 ng/mL (≈ 0.024 nM); MIC ([16]; ATCC43300, ATCC 43300, methicillin-sensitive, β-lactamase Neg./Pos., read-out: MIC): 0.06 ng/mL (≈ 0.0959 nM); MIC ([16]; ATCC700260, ATCC 700260, methicillin-sensitive, β-lactamase Positive, read-out: MIC): 0.015 ng/mL (≈ 0.024 nM); MIC ([16]; ATCC700698, ATCC 700698, methicillin-resistant, β-lactamase Negative, read-out: MIC): 1000 ng/mL (≈ 1600 nM); MIC ([16]; ATCC700699, ATCC 700699, methicillin-resistant, β-lactamase Negative, read-out: MIC): 2000 ng/mL (≈ 3200 nM); MIC ([16]; ATCC700787, ATCC 700787, methicillin-resistant, β-lactamase Positive, read-out: MIC): 1000 ng/mL (≈ 1600 nM); MIC ([16]; ATCC700788, ATCC 700788, methicillin-resistant, β-lactamase Positive, read-out: MIC): 250 ng/mL (≈ 399 nM); MIC ([16]; ATCC700789, ATCC 700789, methicillin-resistant, β-lactamase Positive, read-out: MIC): 31 ng/mL (≈ 49.5 nM); MIC ([16]; MRSA, MRSA tested (7), read-out: Geometric mean of MIC): 25 ng/mL (≈ 39.9 nM); MIC ([16]; MSSA, MSSA tested (7), read-out: Geometric mean of MIC): 0.018 ng/mL (≈ 0.0288 nM); MIC ([16]; S. aureus (14), read-out: Geometric mean of MIC): 1 ng/mL (≈ 1.6 nM); MIC ([16]; S. aureus β-lactamase negative (2), read-out: Geometric mean of MIC): 1570 ng/mL (≈ 2510 nM); MIC ([16]; S. aureus β-lactamase positive (12), read-out: Geometric mean of MIC): 0.19 ng/mL (≈ 0.304 nM)
